Active and inactive are the calls of the source. The rule behind the calls is not given here.
Tests used:
[1] = biological target: Melanocortin receptor 3 (Mus musculus) (UniProt P33033); assay: Agonistic activity against mouse MC3R at […]; format: functional
[2] = biological target: Melanocyte-stimulating hormone receptor (Mus musculus, UniProt Q01727); assay: Agonistic activity against mouse MC1R; format: functional
[3] = biological target: Melanocortin receptor 5 (Mus musculus, UniProt P41149); assay: Agonistic activity against mouse MC5R; format: functional
Melanocortin receptor 5, sequence (P41149 whole entry): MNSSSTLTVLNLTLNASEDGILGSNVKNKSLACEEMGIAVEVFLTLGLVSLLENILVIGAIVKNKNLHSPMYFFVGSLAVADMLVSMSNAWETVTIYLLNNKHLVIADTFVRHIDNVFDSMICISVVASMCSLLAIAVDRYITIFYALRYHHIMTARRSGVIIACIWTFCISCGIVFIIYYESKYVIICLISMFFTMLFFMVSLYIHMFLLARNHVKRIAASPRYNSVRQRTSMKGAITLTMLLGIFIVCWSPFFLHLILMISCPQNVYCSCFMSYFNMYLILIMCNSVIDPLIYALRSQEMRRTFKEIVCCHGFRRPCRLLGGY

[4] = biological target: Melanocortin receptor 4 (Mus musculus, UniProt P56450); assay: Agonistic activity against mouse MC4R; format: functional
Melanocortin receptor 4, sequence (P56450 whole entry): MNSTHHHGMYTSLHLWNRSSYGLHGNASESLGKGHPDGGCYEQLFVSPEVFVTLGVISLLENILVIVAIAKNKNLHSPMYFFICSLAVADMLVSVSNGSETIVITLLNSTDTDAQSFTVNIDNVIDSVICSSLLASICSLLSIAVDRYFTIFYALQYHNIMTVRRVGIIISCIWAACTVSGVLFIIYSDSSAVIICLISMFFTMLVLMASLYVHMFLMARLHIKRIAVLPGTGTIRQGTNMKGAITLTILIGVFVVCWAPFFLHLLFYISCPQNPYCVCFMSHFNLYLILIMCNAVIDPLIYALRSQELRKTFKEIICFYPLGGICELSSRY

[5] = biological target: Melanocortin receptor 5 (Mus musculus) (UniProt P41149); assay: Agonistic activity against mouse MC5R at […]; format: functional
Melanocortin receptor 5 (Mus musculus), sequence (P41149 whole entry): as the sequence (P41149 whole entry) above

[6] = biological target: Melanocortin receptor 4 (Mus musculus) (UniProt P56450); assay: Agonistic activity against mouse MC4R at […]; format: functional
Melanocortin receptor 4 (Mus musculus), sequence (P56450 whole entry): as the sequence (P56450 whole entry) above

[7] = organism: Mus musculus; assay: Selectivity index, ratio of EC50 for mouse MCR5R to EC50 for mouse MC1R
[8] = organism: Mus musculus; assay: Selectivity index, ratio of EC50 for mouse MCR4R to EC50 for mouse MC1R

Melanocortin receptor 3 (Mus musculus), sequence (P33033 whole entry): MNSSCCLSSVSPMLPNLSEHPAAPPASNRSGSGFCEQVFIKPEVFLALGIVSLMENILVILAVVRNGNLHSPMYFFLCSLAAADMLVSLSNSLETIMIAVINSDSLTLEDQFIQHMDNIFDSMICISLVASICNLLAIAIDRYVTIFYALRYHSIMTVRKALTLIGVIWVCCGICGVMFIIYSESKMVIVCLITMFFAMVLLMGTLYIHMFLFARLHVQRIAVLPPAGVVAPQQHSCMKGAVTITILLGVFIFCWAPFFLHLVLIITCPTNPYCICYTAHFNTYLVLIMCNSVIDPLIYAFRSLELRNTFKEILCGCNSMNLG
Melanocyte-stimulating hormone receptor, sequence (Q01727 whole entry): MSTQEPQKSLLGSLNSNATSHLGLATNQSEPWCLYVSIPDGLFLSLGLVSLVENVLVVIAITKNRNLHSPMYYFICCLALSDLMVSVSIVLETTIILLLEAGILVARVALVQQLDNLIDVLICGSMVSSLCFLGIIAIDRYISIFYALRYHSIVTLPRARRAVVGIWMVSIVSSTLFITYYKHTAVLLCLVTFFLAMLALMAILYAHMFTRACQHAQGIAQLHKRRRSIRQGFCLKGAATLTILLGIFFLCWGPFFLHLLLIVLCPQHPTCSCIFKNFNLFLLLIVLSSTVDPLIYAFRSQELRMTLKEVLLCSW

Row | SMILES | Activity [1] | also measured
1 | COc1ccc(/C=C\C(=O)N[C@@H](Cc2cnc[nH]2)C(=O)N[C@H](Cc2ccccc2)C(=O)N[C@H](CCCNC(=N)N)C(N)=O)cc1 | inactive | –
2 | N=C(N)NCCC[C@@H](NC(=O)[C@@H](Cc1ccccc1)NC(=O)[C@H](Cc1cnc[nH]1)NC(=O)/C=C/c1ccc(F)cc1F)C(N)=O | inactive | –
3 | N=C(N)NCCC[C@@H](NC(=O)[C@@H](Cc1ccccc1)NC(=O)[C@H](Cc1cnc[nH]1)NC(=O)/C=C/c1ccc2c(c1)OCO2)C(N)=O | inactive | –
4 | N=C(N)NCCCC(NC(=O)[C@@H](Cc1ccccc1)NC(=O)[C@H](Cc1cnc[nH]1)NC(=O)CCc1cccc2c1OCO2)C(N)=O (single isomer, unassigned) | inactive | EC50 [2]: 7.28 µM; EC50 [3]: 23 µM; EC50 [4]: 25.5 µM
5 | CC(=O)N/C(=C\c1ccccc1)C(=O)N[C@@H](Cc1cnc[nH]1)C(=O)N[C@H](Cc1ccccc1)C(=O)NC(CCCNC(=N)N)C(N)=O (single isomer, unassigned) | inactive | Activity [5]: inactive
6 | COc1ccc(/C=C/C(=O)N[C@@H](Cc2cnc[nH]2)C(=O)N[C@H](Cc2ccccc2)C(=O)NC(CCCNC(=N)N)C(N)=O)cc1 (single isomer, unassigned) | inactive | –
7 | COc1ccccc1/C=C/C(=O)N[C@@H](Cc1cnc[nH]1)C(=O)N[C@H](Cc1ccccc1)C(=O)NC(CCCNC(=N)N)C(N)=O (single isomer, unassigned) | inactive | –
8 | N#C/C(=C\c1ccc(O)cc1)C(=O)N[C@@H](Cc1cnc[nH]1)C(=O)N[C@H](Cc1ccccc1)C(=O)NC(CCCNC(=N)N)C(N)=O (single isomer, unassigned) | inactive | –
9 | N=C(N)NCCCC(NC(=O)[C@@H](Cc1ccccc1)NC(=O)[C@H](Cc1cnc[nH]1)NC(=O)/C(F)=C/c1ccccc1)C(N)=O (single isomer, unassigned) | inactive | –
10 | N=C(N)NCCCC(NC(=O)[C@@H](Cc1ccccc1)NC(=O)[C@H](Cc1cnc[nH]1)NC(=O)/C=C/c1ccc([N+](=O)[O-])cc1)C(N)=O (single isomer, unassigned) | inactive | Activity [6]: inactive
11 | N=C(N)NCCCC(NC(=O)[C@@H](Cc1ccccc1)NC(=O)[C@H](Cc1cnc[nH]1)NC(=O)/C=C/c1cccc(O)c1)C(N)=O (single isomer, unassigned) | inactive | –
12 | N=C(N)NCCCC(NC(=O)[C@@H](Cc1ccccc1)NC(=O)[C@H](Cc1cnc[nH]1)NC(=O)/C=C/c1ccccc1)C(N)=O (single isomer, unassigned) | inactive | Selectivity Index [7]: 25; Selectivity Index [8]: 44
13 | N=C(N)NCCCC(NC(=O)[C@@H](Cc1ccccc1)NC(=O)[C@H](Cc1cnc[nH]1)NC(=O)CCC(=O)c1ccc(F)cc1)C(N)=O (single isomer, unassigned) | inactive | –
14 | N=C(N)NCCCC(NC(=O)[C@@H](Cc1ccccc1)NC(=O)[C@H](Cc1cnc[nH]1)NC(=O)CCC(=O)c1ccccc1)C(N)=O (single isomer, unassigned) | inactive | –
15 | N=C(N)NCCCC(NC(=O)[C@@H](Cc1ccccc1)NC(=O)[C@H](Cc1cnc[nH]1)NC(=O)CCCCc1ccc2c(c1)OCO2)C(N)=O (single isomer, unassigned) | – | Activity [5]: inactive; Activity [6]: inactive
16 | N=C(N)NCCCC(NC(=O)[C@@H](Cc1ccccc1)NC(=O)[C@H](Cc1cnc[nH]1)NC(=O)CCc1c[nH]cn1)C(N)=O (single isomer, unassigned) | inactive | –
17 | N=C(N)NCCCC(NC(=O)[C@@H](Cc1ccccc1)NC(=O)[C@H](Cc1cnc[nH]1)NC(=O)CCc1ccc(O)cc1)C(N)=O (single isomer, unassigned) | inactive | Activity [6]: inactive
18 | N=C(N)NCCCC(NC(=O)[C@@H](Cc1ccccc1)NC(=O)[C@H](Cc1cnc[nH]1)NC(=O)CCc1cccc(O)c1)C(N)=O (single isomer, unassigned) | inactive | Activity [6]: inactive
19 | N=C(N)NCCCC(NC(=O)[C@@H](Cc1ccccc1)NC(=O)[C@H](Cc1cnc[nH]1)NC(=O)CCc1cccnc1)C(N)=O (single isomer, unassigned) | inactive | Activity [6]: inactive
20 | N=C(N)NCCCC(NC(=O)[C@@H](Cc1ccccc1)NC(=O)[C@H](Cc1cnc[nH]1)NC(=O)c1ccc2c(c1)OCO2)C(N)=O (single isomer, unassigned) | inactive | –
21 | N=C(N)NCCCC(NC(=O)[C@@H](Cc1ccccc1)NC(=O)[C@H](Cc1cnc[nH]1)NC(=O)c1ccc2cc(O)ccc2c1)C(N)=O (single isomer, unassigned) | inactive | Activity [6]: inactive
